The results in this text go back to ChEMBL document CHEMBL1201862, “PubChem BioAssay data set” (2004).

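Exposure lasted 48 hours, with cells grown in 96-well plates and compounds tested at five concentrations. GI50 marks 50% less growth.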 Active and inactive are the calls of the source. Cut-off read from the data, not from the text of the source: active = GI50 up to about 1.1 µM and inactive = higher. Where a SMILES comes first, the peptide text is derived from it. [ ]: non-standard residue; d: D form. The star is where a group is joined. ξ: configuration not given here. ξPhe(4-NO2) = NC(Cc1ccc([N+](=O)[O-])cc1)C(=O)O; Boc = CC(C)(C)OC(=O)*

Among the test systems are 786-0; BT-549; COLO 205; DU-145; HCT-116; HL-60; HOP-62; HT-29; M14; MDA-MB-435; Malme-3M; NCI-H522; RXF 393; SF-295; SK-MEL-28; SK-MEL-2; SN12C; TK-10; K562.
Holding throughout (assay): NCI-60 cell line screen, 48 h

In the case of `Cn1c(-c2ccccc2)cc2c3ccsc3c3ccsc3c21`, the GI50 in the test with 786-0 was 79.3 µM (inactive); in the test on BT-549 it was > 100 µM (inactive); in the test with COLO 205, > 100 µM (inactive); in the test with DU-145, > 100 µM (inactive); in the test on HCT-116, > 100 µM (inactive); with HL-60 it was > 100 µM (inactive). Besides, the GI50 with HOP-62, in the test with HT-29, in the test on M14, in the test on MDA-MB-435, in the test with Malme-3M and in the test with NCI-H522 was > 100 µM (inactive) in each case. Moreover, the GI50 was > 100 µM (inactive) in the test on RXF 393; > 100 µM (inactive) in the test on SF-295; > 100 µM (inactive) in the test on SK-MEL-28; > 100 µM (inactive) with SK-MEL-2; > 100 µM (inactive) in the test on SN12C; 21.3 µM (inactive) in the test with TK-10.

Take `COC(=O)C1CC23CCCN4CCC5(c6ccccc6N(C=O)C15CC2)C43` (configuration not stated): the GI50 in the test with 786-0, with BT-549, in the test on COLO 205, in the test with DU-145, in the test with HCT-116 and in the test with HL-60 was > 100 µM (inactive) throughout. The GI50 with HOP-62, in the test on HT-29, with M14, in the test with MDA-MB-435, in the test with Malme-3M and with NCI-H522 was > 100 µM (inactive) throughout. In addition, the GI50 in the test with RXF 393, in the test with SF-295, in the test with SK-MEL-28, in the test on SK-MEL-2, in the test with SN12C and in the test on TK-10 was > 100 µM (inactive) throughout.

On to `CC(C)(C)OC(=O)NC(CCCCNC(=O)OCc1ccccc1)C(=O)NCCNc1ccc(NCCNC(=O)C(CCCCNC(=O)OCc2ccccc2)NC(=O)OC(C)(C)C)c2c1C(=O)c1ccccc1C2=O` (configuration not stated), for which the GI50 is > 56.9 µM (inactive) in the test on 786-0; > 71 µM (inactive) with BT-549; 27.2 µM (inactive) with COLO 205; > 100 µM (inactive) with DU-145; 24.5 µM (inactive) with HCT-116; 1.02 µM (active) with HL-60. For the same compound, the GI50 is 23.9 µM (inactive) in the test with HOP-62; > 100 µM (inactive) with HT-29; > 100 µM (inactive) in the test on M14; 31.5 µM (inactive) with MDA-MB-435; > 86.3 µM (inactive) in the test on Malme-3M; 10.3 µM (inactive) in the test with NCI-H522. The GI50 was 25.7 µM (inactive) in the test on RXF 393; > 93.8 µM (inactive) in the test with SF-295; 14.7 µM (inactive) in the test with SK-MEL-28; 6.44 µM (inactive) in the test on SK-MEL-2; > 100 µM (inactive) in the test on SN12C; > 100 µM (inactive) with TK-10.

Turning to `CCNC(=O)CNC(=O)C(Cc1ccc([N+](=O)[O-])cc1)NC(=O)OC(C)(C)C` (configuration not stated) (Boc-[ξPhe(4-NO2)]-Gly-NHEt), the GI50 in the test with 786-0, in the test with BT-549, with COLO 205, in the test with DU-145, in the test with HCT-116 and in the test on HL-60 was > 100 µM (inactive) in each case. The GI50 in the test with HOP-62, in the test with HT-29, in the test on K562, in the test with M14, in the test with MDA-MB-435 and with Malme-3M was > 100 µM (inactive) in each case. Besides, the GI50 in the test with NCI-H522, in the test with RXF 393, with SF-295, in the test with SK-MEL-28, with SN12C and in the test on TK-10 was > 100 µM (inactive) each time.
